Experimental data taken from patent US20050143391A1, “Heterocyclic amides with alpha-4 integrin antagonist activity” (J. Uriach Y Compañia S.A., priority 2002, published 2005).

Biological target: T1, integrin α4β1 (Homo sapiens, UniProt P05556+P13612)
T1 construct: endogenous in cells; host or cells: Jurkat cells
Experiment: Inhibition of α4β1-dependent cell adhesion (Jurkat cells to peptide CS-1)
Type: cell-based
Conditions: adhesion of Jurkat cells to CS-1-coated plates; products preincubated with cells at 37° C. for 30 minutes; at least 6 product concentrations
Procedure: Inhibition of α4β1-Dependent Cell Adhesion
Inhibition of α4β1-dependent cell adhesion was assayed by evaluating the interaction between the peptide CS-1 (H-CLHGPEILDVPST-CONH2) and Jurkat cells (T lymphocyte cell line expressing activated integrin α4β1 but not integrin α4β7) after preincubation of said cells with the compounds of formula I to be tested. The peptide CS-1 was synthesized by conventional solid phase chemistry and purified by HPLC. Its identity was determined by elemental analysis and mass spectroscopy.
1.—Preparation of CS-1-Coated Plates
96-black well plates (Costar 3925) were used. 200 μL of 2% bovine serum albumin solution (BSA, Sigma α4503) was added per well and the plate was incubated for 2 hours at 37° C. The solution was discarded and the plate was washed twice with 200 μL of phosphate buffered saline solution (PBS, Gibco 14190-094) per well. Then, 200 μL of 10 μg/mL N-succinimidyl 3-(2-pyridyldithio)propionate solution (SPDP, Sigma P-3415) was added per well, and the plate was incubated at 37° C. for 30 minutes. The remaining solution was discarded and the plate was twice washed with 200 μL per well of PBS. Next, 200 μL of 25 μg/mL CS-1 peptide solution (equivalent to 5 μg/well) was added per well and the plate was incubated at 37° C. for 2 hours and then overnight at 4° C.
2.—Jurkat Cell Line: Culture and Fluorescent Labelling
Jurkat cells were kept in culture at a density comprised between 2×10^5 and 1.5×10^6 cells/mL in 1640 RPMI medium (Gibco 21875-034) enriched with 10% fetal calf serum (FCS, Gibco 10270-106).
50×10^6 cells were extracted, centrifuged (1200 rpm, 10 min, room temperature) and the medium was discarded. Cells were resuspended in 5 mL of RPMI, and 10 μL of a 1 mM solution of the fluorophore calceine.AM (Molecular Probes, C-3100) was added. The suspension was incubated for 30 min at 37° C. in the darkness, with occasional shaking. 40 mL of RPMI was added to stop the labelling and the suspension was centrifuged (1200 rpm, 10 min, room temperature). The medium was discarded, and the labelled cells were washed with 40 mL of RPMI in order to remove the unincorporated fluorescent probe. Finally, cells were resuspended in RPMI enriched with 10% FCS to obtain a 8×10^6 cells/mL suspension.
The plate previously prepared was twice washed with 200 μL per well of PBS and blocked with 200 μL of 1% BSA for at least 1 hour at room temperature.
The products to be tested were dissolved in dimethylsulfoxide at a concentration of 10 mM and dilutions thereof were prepared in RPMI medium enriched with 10% FCS. The products were preincubated with the Jurkat cells at 37° C. for 30 minutes, at a product concentration comprised between 1 nM and 10 μM, at a cell density of 4×10^6 cells/mL and at a maximal dimethylsulfoxide concentration of 0.1%.
100 μL of the resulting cell-product supsension was added per well (cellular density 4×10^5 cells/well). The product was omitted in the control wells and cells or CS-1 were omitted in the blanks. The plate was incubated for 60 min at room temperature in the-darkness, was twice washed with 200 μL per well of RPMI and then 100 μL of PBS was added. The plate was read with a fluorescence reader at an excitation wavelength of 485 nm and at an emission wavelength of 530 nm.
Maximal adhesion (100%) was determined as the average of the fluorescence intensities (FI) of the control wells, and the minimal adhesion as the average FI of the blanks. The adhesion inhibition percentage was determined using the following formula: [formula]
The results are expressed as the IC50 values (concentration producing 50% inhibition). IC50 values were calculated by testing at least 6 product concentrations and by adjusting the inhibition percentages to a dose-response curve of variable slope.

T1 sequence (P13612 34-1032): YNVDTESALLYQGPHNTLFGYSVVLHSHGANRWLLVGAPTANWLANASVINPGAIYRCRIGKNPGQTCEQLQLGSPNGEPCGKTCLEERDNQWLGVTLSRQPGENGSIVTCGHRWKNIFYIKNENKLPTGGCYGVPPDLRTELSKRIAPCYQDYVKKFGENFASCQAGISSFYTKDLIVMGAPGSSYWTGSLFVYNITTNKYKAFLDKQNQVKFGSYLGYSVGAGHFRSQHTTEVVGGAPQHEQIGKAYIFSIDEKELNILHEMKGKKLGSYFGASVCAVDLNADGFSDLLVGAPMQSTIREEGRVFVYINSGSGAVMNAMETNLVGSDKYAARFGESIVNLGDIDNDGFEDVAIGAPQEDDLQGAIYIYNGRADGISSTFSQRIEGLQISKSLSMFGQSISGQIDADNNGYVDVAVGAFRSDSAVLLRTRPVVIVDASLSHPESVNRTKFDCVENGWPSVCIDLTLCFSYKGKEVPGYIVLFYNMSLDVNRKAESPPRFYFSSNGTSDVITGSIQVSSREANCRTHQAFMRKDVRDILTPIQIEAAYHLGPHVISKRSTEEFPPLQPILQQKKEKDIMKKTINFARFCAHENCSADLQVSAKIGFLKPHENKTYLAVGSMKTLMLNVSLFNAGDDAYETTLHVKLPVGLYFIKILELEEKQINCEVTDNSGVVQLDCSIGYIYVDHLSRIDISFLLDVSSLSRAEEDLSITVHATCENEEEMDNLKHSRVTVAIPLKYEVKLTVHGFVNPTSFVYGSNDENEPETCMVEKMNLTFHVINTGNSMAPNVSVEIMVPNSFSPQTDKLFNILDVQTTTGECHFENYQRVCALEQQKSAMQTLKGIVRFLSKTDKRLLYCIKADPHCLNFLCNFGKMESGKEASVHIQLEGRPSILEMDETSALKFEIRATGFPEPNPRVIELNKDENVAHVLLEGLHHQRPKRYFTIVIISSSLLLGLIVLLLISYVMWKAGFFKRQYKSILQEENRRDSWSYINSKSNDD
T1 sequence (P05556 21-798): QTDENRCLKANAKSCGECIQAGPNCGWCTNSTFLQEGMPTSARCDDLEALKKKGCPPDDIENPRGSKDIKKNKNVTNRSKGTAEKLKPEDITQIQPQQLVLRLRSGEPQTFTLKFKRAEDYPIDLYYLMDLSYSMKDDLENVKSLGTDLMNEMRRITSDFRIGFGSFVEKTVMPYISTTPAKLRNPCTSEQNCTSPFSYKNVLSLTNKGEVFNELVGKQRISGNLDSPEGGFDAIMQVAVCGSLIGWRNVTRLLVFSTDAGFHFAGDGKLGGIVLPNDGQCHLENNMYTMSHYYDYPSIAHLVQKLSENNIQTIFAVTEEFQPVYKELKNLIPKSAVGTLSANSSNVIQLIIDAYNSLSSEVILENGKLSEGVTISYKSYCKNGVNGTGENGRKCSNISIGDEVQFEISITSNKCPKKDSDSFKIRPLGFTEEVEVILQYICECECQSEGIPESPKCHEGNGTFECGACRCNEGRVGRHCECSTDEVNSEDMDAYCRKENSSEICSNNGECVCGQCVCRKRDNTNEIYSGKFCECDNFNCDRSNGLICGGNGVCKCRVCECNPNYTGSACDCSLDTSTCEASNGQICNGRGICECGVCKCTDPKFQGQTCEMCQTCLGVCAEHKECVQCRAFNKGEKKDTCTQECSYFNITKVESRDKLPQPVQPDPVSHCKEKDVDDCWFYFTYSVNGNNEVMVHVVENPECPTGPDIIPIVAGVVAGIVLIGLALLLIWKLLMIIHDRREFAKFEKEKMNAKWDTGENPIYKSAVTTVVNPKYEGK

Compound | IC50
Cc1nc2cnccc2n1CC1CCN(C(=O)NC[C@H](NC(=O)[C@@H]2CCCN2S(=O)(=O)c2cc(Cl)cc(Cl)c2)C(=O)O)CC1 [Example 89, (2S)-2-[1-(3,5-Dichlorophenylsulfonyl)-L-prolyl]amino-3-[[4-(2-methylimidazo[4,5-c]pyridin-1-ylmethyl)piperidin-1-ylcarbonyl]amino]propionic Acid] | 7.7 nM
Cc1ccc(S(=O)(=O)N2CCC[C@H]2C(=O)N[C@@H](CNC(=O)N2CCC(CN3CCCCC3)CC2)C(=O)O)cc1 [Example 105, (2S)-3-[[4-(1-Piperidylmethyl)piperidin-1-ylcarbonyl]amino]-2-[N-tosyl-L-prolyl]aminopropionic Acid] | 120 nM
CN1CCN(C(=O)NCC2CCN(C(=O)CC[C@H](NC(=O)[C@@H]3CCCN3S(=O)(=O)c3cc(Cl)cc(Cl)c3)C(=O)O)CC2)CC1 [Example 97, (2S)-2-[1-(3,5-Dichlorophenylsulfonyl)-L-prolylamino]-5-[4-[[(4-methylpiperazin-1-yl)carbonylamino]methyl]piperidin-1-yl]-5-oxopentanoic Acid] | 122 nM
O=C(O)[C@H](CCC(=O)N1CCC(Cn2c(=O)[nH]c3cnccc32)CC1)NC(=O)[C@@H]1CCCN1S(=O)(=O)c1cc(Cl)cc(Cl)c1 [Example 86, (2S)-2-[1-(3,5-Dichlorophenylsulfonyl)-L-prolylamino]-5-oxo-5-[4-(2-oxo-2,3-dihydroimidazo[4,5-c]pyridin-1-ylmethyl)piperidin-1-yl]pentanoic Acid] | 18 nM
O=C(O)[C@H](CCC(=O)N1CCC(CCN2CCOCC2)CC1)NC(=O)[C@@H]1CCCN1S(=O)(=O)c1cc(Cl)cc(Cl)c1 [Example 80, (2S)-2-[1-(3,5-Dichlorophenylsulfonyl)-L-prolylamino]-5-[4-[2-(4-morpholinyl)ethyl]piperidin-1-yl]-5-oxopentanoic Acid] | 0.5 nM
CC(C)CC(=O)NCC1CCN(C(=O)CC[C@H](NC(=O)[C@@H]2CCCN2S(=O)(=O)c2cc(Cl)cc(Cl)c2)C(=O)O)CC1 [Example 55, (2S)-2-[1-(3,5-Dichlorophenylsulfonyl)-L-prolylamino]-5-[4-[(3-methylbutanoylamino)methyl]piperidin-1-yl]-5-oxopentanoic Acid] | 58 nM
COCCNC(=O)OCCC1CCN(C(=O)CC[C@H](NC(=O)[C@@H]2CCCN2S(=O)(=O)c2cc(Cl)cc(Cl)c2)C(=O)O)CC1 [Example 66] | 3.5 nM
Cc1ccc(S(=O)(=O)N2CCC[C@H]2C(=O)N[C@@H](CCC(=O)N2CCN(Cc3ccccn3)CC2)C(=O)O)cc1 [Example 75, (2S)-5-Oxo-5-[4-(2-pyridylmethyl)piperazin-1-yl]-2-[[1-tosyl-L-prolyl]amino]pentanoic Acid] | 101 nM
Cc1ccc(S(=O)(=O)N2CCC[C@H]2C(=O)N[C@@H](CCC(=O)N2CCC(CN3Cc4ccccc4C3=O)CC2)C(=O)O)cc1 [Example 76, (2S)-5-Oxo-5-[4-(1-oxoisoindolin-2-ylmethyl)piperidin-1-yl]-2-[[1-tosyl-L-prolyl]amino]pentanoic Acid] | 67 nM
O=C(O)[C@H](CCC(=O)N1CCC(CN2Cc3ccccc3C2=O)CC1)NC(=O)[C@@H]1CCCN1S(=O)(=O)c1cc(Cl)cc(Cl)c1 [Example 54, (2S)-5-[4-[(1-Oxoisoindolin-2-yl)methyl]piperidin-1-yl]-2-[1-(3,5-dichlorophenylsulfonyl)-L-prolylamino]-5-oxopentanoic Acid] | 22 nM
CN1CCN(C(=O)OCCC2CCN(C(=O)CC[C@H](NC(=O)[C@@H]3CCCN3S(=O)(=O)c3cc(Cl)cc(Cl)c3)C(=O)O)CC2)CC1 [Example 93, (2S)-2-[1-(3,5-Dichlorophenylsulfonyl)-L-prolylamino]-5-[4-[2-[(4-methylpiperazin-1-yl)carbonyloxy]ethyl]piperidin-1-yl]5-oxopentanoic Acid] | 26.7 nM
O=C(O)[C@H](CCC(=O)N1CCC(CCOC(=O)N2CCCC2)CC1)NC(=O)[C@@H]1CCCN1S(=O)(=O)c1cc(Cl)cc(Cl)c1 [Example 61, (2S)-2-[1-(3,5-Dichlorophenylsulfonyl)-L-prolylamino]-5-oxo-5-[4-[2-(pyrrolidin-1-ylcarbonyloxy)ethyl]piperidin-1-yl]pentanoic Acid] | 2.3 nM
CCc1nc2c(C)cc(C)nc2n1CCC1CCN(C(=O)CC[C@H](NC(=O)[C@@H]2CCCN2S(=O)(=O)c2cc(Cl)cc(Cl)c2)C(=O)O)CC1 [Example 59, (2S)-2-[1-(3,5-Dichlorophenylsulfonyl)-L-prolylamino]-5-[4-[2-(2-ethyl-5,7-dimethylimidazo[4,5-b]pyridin-3-yl)ethyl]piperidin-1-yl]-5-oxopentanoic Acid] | 13.3 nM
CC(C)(C)NC(=O)NCC1CCN(C(=O)CC[C@H](NC(=O)[C@@H]2CCCN2S(=O)(=O)c2cc(Cl)cc(Cl)c2)C(=O)O)CC1 [Example 56, (2S)-5-[4-[(N′-tert-Butylureido)methyl]piperidin-1-yl]-2-[1-(3,5-dichlorophenylsulfonyl)-L-prolylamino]-5-oxopentanoic Acid] | 23 nM
